Reference: the NIST ThermoML archive (doi:10.1016/j.jct.2007.03.008)
Numbers after ± are expanded uncertainties.

Experiments:
[1] = Liquid; for mass density: 101.33 kPa
[2] = refractive index (Na D-line) (dimensionless); settings: 298.15 K; 101.33 kPa; Liquid; Standard Abbe refractometry

Row | Compound | mass density ([1]; 298.15 K) [kg/m3] | vapor or sublimation pressure ([1]; 298.15 K) [kPa] | vapor or sublimation pressure ([1]; 308.15 K) [kPa] | vapor or sublimation pressure ([1]; 318.15 K) [kPa] | refractive index [2] | mass density ([1]; 298.15 K, Vibrating tube method) [kg/m3]
1 | ClCCCCl [1,3-dichloropropane] | 1181.4 ± 0.3 | 2.75 ± 0.16 | 4.48 ± 0.17 | 6.87 ± 0.18 | 1.4459 ± 0.0007 | 
2 | ClCCCCCl [1,4-dichlorobutane] | 1132.8 ± 0.2 | 0.99 ± 0.16 | 1.39 ± 0.16 | 2.13 ± 0.16 | 1.4519 ± 0.0007 | 
3 | CCCCCl [1-chlorobutane] |  | 13.7 ± 0.4 | 21.32 ± 0.44 | 31.86 ± 0.51 | 1.3991 ± 0.0007 | 880.9 ± 0.1
4 | O=C1CCCC1 [cyclopentanone] | 945.3 ± 0.2 | 1.71 ± 0.32 | 2.8 ± 0.33 | 4.4 ± 0.34 | 1.4347 ± 0.0007 | 
